# Data as given in ChEMBL document CHEMBL1201862, “PubChem BioAssay data set” (2004).
# Several values for one entry are separate records, joined by “and”; a condition that tells them apart may be missing. Equal values may be shown once.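 Test compounds were applied to cells in 96-well plates for 48 hours at 5 doses. Here, GI50 denotes the concentration required for 50% inhibition of growth.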 Activity calls are given as the source filed them. Rule as the data show it: active = GI50 up to about 1.1 µM and inactive = higher.
# How the values were obtained:
# Assay in all cases: NCI anticancer screen, dose series, 48 h
# [1] = test system: LXFL 529
# [2] = test system: MOLT-4
# [3] = test system: KM-20L2
# [4] = test system: SNB-78
# [5] = test system: DMS-114
# [6] = test system: M19-MEL
# [7] = test system: SW-620
# [8] = test system: OVCAR-8
# [9] = test system: SK-MEL-5
# [10] = test system: COLO 205
# [11] = test system: DU-145
# [12] = test system: T47D
# [13] = test system: MDA-N
# [14] = test system: RXF 393
# [15] = test system: HOP-92
# [16] = test system: ACHN
# [17] = test system: DMS-273
# [18] = test system: HCC 2998
# [19] = test system: SNB-19
# [20] = test system: HOP-18
# [21] = test system: UACC-257
# [22] = test system: DLD-1
# [23] = test system: SK-MEL-2
# [24] = test system: XF498
# [25] = test system: OVCAR-3
# [26] = test system: 786-0
# [27] = test system: OVCAR-5
# [28] = test system: SNB-75
# [29] = test system: IGROV-1
# [30] = test system: NCI-H460
# [31] = test system: A549
# [32] = test system: EKVX
# [33] = test system: U-251
# [34] = test system: HCT-15
# [35] = test system: NCI-H522
# [36] = test system: SK-OV-3
# [37] = test system: KM12
# [38] = test system: UACC-62
# [39] = test system: M14
# [40] = test system: LOX IMVI
# [41] = test system: SF-295
# [42] = test system: HCT-116
# [43] = test system: K562
# [44] = test system: HT-29
# [45] = test system: OVCAR-4
# [46] = test system: A498
# [47] = test system: Malme-3M
# [48] = test system: RXF 631
# [49] = test system: TK-10
# [50] = test system: SN12C
# [51] = test system: SK-MEL-28
# [52] = test system: SF-539
# [53] = test system: SF-268
# [54] = test system: NCI-H23
# [55] = test system: RPMI-8226
# [56] = test system: UO-31
# [57] = test system: HL-60
# [58] = test system: CAKI-1
# [59] = test system: HOP-62
# [60] = test system: CCRF-CEM
# [61] = test system: NCI-H226
# [62] = test system: SR
structure (smiles),measurement,setting,value
CN(C)CC1CCCC(CN(C)C)C1=O (stereo unspecified),GI50,[1],0.386 µM (active)
same,GI50,[2],241 nM (active) and 450 nM (active)
same,GI50,[3],5.02 µM (inactive)
same,GI50,[4],3.5 µM (inactive)
same,GI50,[5],1.48 µM (inactive)
same,GI50,[6],3.65 µM (inactive)
same,GI50,[7],196 nM (active) and 271 nM (active)
same,GI50,[8],2.71 µM (inactive) and 2.98 µM (inactive)
same,GI50,[9],8.38 µM (inactive) and 16 µM (inactive)
same,GI50,[10],1.67 µM (inactive) and 3.33 µM (inactive)
same,GI50,[11],> 10 µM (inactive) and 15.6 µM (inactive)
same,GI50,[12],1.69 µM (inactive) and 1.24 µM (inactive)
same,GI50,[13],11 µM (inactive) and 12.1 µM (inactive)
same,GI50,[14],1.73 µM (inactive) and 1.26 µM (inactive)
same,GI50,[15],1.91 µM (inactive) and 968 nM (active)
same,GI50,[16],1.33 µM (inactive) and 1.87 µM (inactive)
same,GI50,[17],10.9 µM (inactive)
same,GI50,[18],13.9 µM (inactive) and 19.3 µM (inactive)
same,GI50,[19],> 45.6 µM (inactive) and 47 µM (inactive)
same,GI50,[20],1.83 µM (inactive)
same,GI50,[21],2.34 µM (inactive) and 2.11 µM (inactive)
same,GI50,[22],1.12 µM (active)
same,GI50,[23],8.73 µM (inactive) and 17.2 µM (inactive)
same,GI50,[24],2.09 µM (inactive)
same,GI50,[25],2.58 µM (inactive) and 1.95 µM (inactive)
same,GI50,[26],2.32 µM (inactive) and 1.77 µM (inactive)
same,GI50,[27],18.2 µM (inactive) and 18.3 µM (inactive)
same,GI50,[28],16.4 µM (inactive) and 13.9 µM (inactive)
same,GI50,[29],19.3 µM (inactive) and 18.1 µM (inactive)
same,GI50,[30],19.8 µM (inactive) and 17.5 µM (inactive)
same,GI50,[31],24.9 µM (inactive) and 27.2 µM (inactive)
same,GI50,[32],5.74 µM (inactive) and 6.61 µM (inactive)
same,GI50,[33],10.7 µM (inactive) and 17.9 µM (inactive)
CC(=O)CC(=O)OC1CC(C)CCC1C(C)C (stereo unspecified),GI50,[1],89.5 µM (inactive)
same,GI50,[2],17.3 µM (inactive)
same,GI50,[4],> 100 µM (inactive)
same,GI50,[34],38.7 µM
same,GI50,[35],39.7 µM (inactive)
same,GI50,[5],37.2 µM (inactive)
same,GI50,[36],> 100 µM (inactive)
same,GI50,[37],37.8 µM (inactive)
same,GI50,[6],34.6 µM (inactive)
same,GI50,[7],43.1 µM (inactive)
same,GI50,[8],72.8 µM (inactive)
same,GI50,[9],42.2 µM (inactive)
same,GI50,[10],96.2 µM (inactive)
same,GI50,[38],69.2 µM (inactive)
same,GI50,[39],> 100 µM (inactive)
same,GI50,[40],47.6 µM (inactive)
same,GI50,[41],80.7 µM (inactive)
same,GI50,[42],13.5 µM (inactive)
same,GI50,[14],72.4 µM (inactive)
same,GI50,[15],35 µM (inactive)
same,GI50,[43],16 µM (inactive)
same,GI50,[16],> 100 µM (inactive)
same,GI50,[17],41.9 µM (inactive)
same,GI50,[44],30 µM (inactive)
same,GI50,[45],54.5 µM (inactive)
same,GI50,[18],41.4 µM (inactive)
same,GI50,[46],> 100 µM (inactive)
same,GI50,[19],78.5 µM (inactive)
same,GI50,[47],40.7 µM (inactive)
same,GI50,[48],> 100 µM (inactive)
same,GI50,[49],> 100 µM (inactive)
same,GI50,[21],77.4 µM (inactive)
same,GI50,[50],> 100 µM (inactive)
same,GI50,[22],24.7 µM (inactive)
same,GI50,[23],28.4 µM (inactive)
same,GI50,[51],63.4 µM (inactive)
same,GI50,[24],> 100 µM (inactive)
same,GI50,[25],26 µM (inactive)
same,GI50,[26],> 100 µM (inactive)
same,GI50,[52],36.8 µM (inactive)
same,GI50,[27],> 100 µM (inactive)
same,GI50,[28],73.3 µM (inactive)
same,GI50,[53],45.7 µM (inactive)
same,GI50,[54],96.8 µM (inactive)
same,GI50,[55],15 µM (inactive)
same,GI50,[56],> 100 µM (inactive)
same,GI50,[29],76.6 µM (inactive)
same,GI50,[57],18.8 µM (inactive)
same,GI50,[30],53.3 µM (inactive)
same,GI50,[58],> 100 µM (inactive)
same,GI50,[31],35.3 µM (inactive)
same,GI50,[32],> 100 µM (inactive)
same,GI50,[59],33.9 µM (inactive)
same,GI50,[33],47 µM (inactive)
same,GI50,[60],11.7 µM (inactive)
CC[C@@H]1OC2(C)CC(S(=O)(=O)c3ccccc3O)CC1O2 (stereo partly specified),GI50,[1],> 100 µM (inactive)
same,GI50,[2],> 100 µM (inactive)
same,GI50,[61],> 100 µM (inactive)
same,GI50,[3],> 100 µM (inactive)
same,GI50,[34],> 100 µM
same,GI50,[35],> 100 µM (inactive)
same,GI50,[36],> 100 µM (inactive)
same,GI50,[37],> 100 µM (inactive)
same,GI50,[6],> 100 µM (inactive)
same,GI50,[7],> 100 µM (inactive)
same,GI50,[8],> 100 µM (inactive)
same,GI50,[9],> 100 µM (inactive)
same,GI50,[10],> 100 µM (inactive)
same,GI50,[38],> 100 µM (inactive)
same,GI50,[39],> 100 µM (inactive)
same,GI50,[41],> 100 µM (inactive)
same,GI50,[42],> 100 µM (inactive)
same,GI50,[14],> 100 µM (inactive)
same,GI50,[15],> 100 µM (inactive)
same,GI50,[43],> 100 µM (inactive)
same,GI50,[16],> 100 µM (inactive)
same,GI50,[17],> 100 µM (inactive)
same,GI50,[44],> 10 µM (inactive)
same,GI50,[45],> 100 µM (inactive)
same,GI50,[18],> 100 µM (inactive)
same,GI50,[19],> 100 µM (inactive)
same,GI50,[47],> 100 µM (inactive)
same,GI50,[48],> 100 µM (inactive)
same,GI50,[20],> 100 µM (inactive)
same,GI50,[21],> 100 µM (inactive)
same,GI50,[50],> 100 µM (inactive)
same,GI50,[22],> 100 µM (inactive)
same,GI50,[23],> 100 µM (inactive)
same,GI50,[51],> 100 µM (inactive)
same,GI50,[25],> 100 µM (inactive)
same,GI50,[26],> 100 µM (inactive)
same,GI50,[62],> 100 µM (inactive)
same,GI50,[52],> 100 µM (inactive)
same,GI50,[27],> 100 µM (inactive)
same,GI50,[28],> 100 µM (inactive)
same,GI50,[53],> 100 µM (inactive)
same,GI50,[54],> 100 µM (inactive)
same,GI50,[55],> 100 µM (inactive)
same,GI50,[56],> 100 µM (inactive)
same,GI50,[29],> 100 µM (inactive)
same,GI50,[57],> 100 µM (inactive)
same,GI50,[30],> 100 µM (inactive)
same,GI50,[58],< 0.01 µM (active)
same,GI50,[31],> 100 µM (inactive)
same,GI50,[32],> 100 µM (inactive)
same,GI50,[59],> 100 µM (inactive)
same,GI50,[33],> 100 µM (inactive)
same,GI50,[60],> 100 µM (inactive)
